What was measured:
Experiment in all cases: area under concentration-response curve (viability) (AUC (a.u.)); higher = less active
Conditions in all cases: 48 h
CU-ACC1 = tested on: CU-ACC1
Procedure, shortened: (§1)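 Luminescence from CellTiter-Glo, read after 48 h, measured three adrenocortical carcinoma cell lines treated in 1,536-well plates with library compounds at 11 concentrations. Values were normalised per plate to vehicle and empty-well controls. The AC50 and area under the curve come from fitted concentration-response curves in inhibitory or non-responding classes only.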

CU-ACC2 = tested on: CU-ACC2
Procedure, shortened: as §1

NCI-H295R = tested on: NCI-H295R
Procedure, shortened: as §1

SMILES | area under concentration-response curve (CU-ACC1) | area under concentration-response curve (CU-ACC2) | area under concentration-response curve (NCI-H295R)
C[C@@H]1CC(=O)Nc2cccc(-c3ccc4c(c3)c(-c3cnn(C)c3)nn4C)c2N1 | 517 | 602 | 550
O=[N+]([O-])c1cn2c(n1)OC[C@@H](OCc1ccc(OC(F)(F)F)cc1)C2 | 528 | 574 | 523
Cc1c(Cn2c(C)nc3c(C(=O)O)cc(N4CCOCC4)cc32)cccc1C(F)(F)F | 444 | 524 | 519
CO[C@H]1/C=C/O[C@@]2(C)Oc3c(C)c(O)c4c(c3C2=O)C2=NC3(CCN(CC(C)C)CC3)NC2=C(NC(=O)/C(C)=C/C=C/[C@H](C)[C@H](O)[C@@H](C)[C@@H](O)[C@@H](C)[C@H](OC(C)=O)[C@@H]1C)C4=O | 491 | 607 | 530
CCC/1=C/C2=C(C(=O)N1CC(=O)C3=CC=CC=C3)C(=C([N]2C)C(=O)NC4CCN(CC4)C(=O)CO)OCC(F)(F)F | 572 | 642 | 594
Cc1cnc(Nc2cccc(CN3CCOCC3)c2)nc1Nc1cccc([S+](=O)([O-])NC(C)(C)C)c1 | 453 | 508 | 467
N=C(N)NC(=N)NCCc1ccccc1 | 525 | 626 | 573
CC(=O)OCC(=O)[C@@]12OC(C)(C)O[C@@H]1C[C@H]3[C@@H]4C[C@H](F)C/5=C/C(=O)/C=C\[C@]5(C)[C@@]4(F)[C@@H](O)C[C@]23C | 439 | 528 | 519
CCCCNc1ncc2c(-c3ccc(CN4CCN(C)CC4)cc3)cn(C3CCC(O)CC3)c2n1 (stereo not given) | 513 | 585 | 527
C[C@H]1CC[C@H](n2c3cnccc3c3cnc(Nc4ccc5c(n4)CCN(C(=O)CO)C5)nc32)CC1 | 601 | 622 | 596
CC1=CC2=C(O1)C(=C3OC(=O)\C=C(C)/C3=C2)C | 482 | 581 | 516
C\C1=N\N(C(=O)C1)C2=CC=CC=C2 | 492 | 585 | 478
CNC(=O)c1c(C)oc2cc(Oc3ncnc4cc(OC)c(OC)cc34)ccc12 | 535 | 624 | 593
C[C@H](Nc1ncnc2[nH]cnc12)c1cc2ccc(F)cc2nc1-c1ccccn1 | 466 | 571 | 512
CNC(=O)c1c(-c2ccc(F)cc2)oc2cc(N(CCO)[S+](C)(=O)[O-])c(C3CC3)cc12 | 470 | 580 | 496
Nc1nc(OCc2ccccc2)c2nc[nH]c2n1 | 432 | 479 | 441
O=C1NC(=O)/C(=C/c2ccc(-c3ccc(F)cc3O)o2)S1 | 580 | 611 | 575
COc1cc(OC)c(C(=O)CCCN2CCCC2)c(OC)c1 | 440 | 500 | 465
C[S+](=O)([O-])Nc1ccc([N+](=O)[O-])cc1Oc1ccccc1 | 544 | 639 | 583
CC(O)(C[S+](=O)([O-])c1ccc(F)cc1)C(=O)Nc1ccc(C#N)c(C(F)(F)F)c1 (stereo not given) | 454 | 482 | 447
CCCC1=N[N](C)C2=C1\N=C(/NC2=O)C3=CC(=CC=C3OCC)[S+]([O-])(=O)N4CCN(C)CC4 | 561 | 610 | 539
N#C[C@@H]1C[C@@H]2C[C@@H]2N1C(=O)[C@@H](N)C12CC3CC(CC(O)(C3)C1)C2 | 500 | 598 | 517
O=C(CO)N1CCC(c2n[nH]c(-c3ccc(Cl)cc3)c2-c2ccncn2)CC1 | 520 | 454 | 515

SMILES | area under concentration-response curve (CU-ACC1) | area under concentration-response curve (CU-ACC2) | area under concentration-response curve (NCI-H295R)
C[C@H](c1ccc(F)cc1CCCC(=O)O)N(c1cc(F)ccc1F)[S+](=O)([O-])c1ccc(Cl)cc1 | 519 | 596 | 553
COc1cc2nccc(Oc3ccc(NC(=O)Nc4ccc(F)cc4F)c(F)c3)c2cc1OC | 548 | 623 | 515
Cc1onc(-c2ccc(F)cc2)c1COc1ccc(C(=O)N2CC[S+](=O)([O-])CC2)cn1 | 596 | 646 | 616
Cc1ccccc1N1C(=O)c2cc([S+](N)(=O)[O-])c(Cl)cc2NC1C (stereo not given) | 495 | 599 | 512
CCN1C(=O)\C(=C/C2=CN=C(NC3=CC=C(C=C3)N4CCN(C)CC4)N=C12)C5=C(Cl)C=C(C=C5)C6=CN=CS6 | 562 | 604 | 568
C[N+]1(C)[C@@H]2CC(OC(=O)[C@H](CO)c3ccccc3)C[C@H]1[C@@H]1O[C@@H]12 (stereo not given in full) | 531 | 556 | 500
C[C@H]1CN(CCN1C2=CN=C(NC/3=C/C(=C\N(C)C3=O)C4=CC=NC(=C4CO)N5CC[N]6C7=C(CC(C)(C)C7)C=C6C5=O)C=C2)C8COC8 | 532 | 618 | 560
N#Cc1ccc(Cn2cncc2CN2CCN(c3cccc(Cl)c3)C(=O)C2)cc1 | 520 | 578 | 514
O=C1CCC[C@@H]2[C@H]3CCC[N+]4([O-])CCC[C@@H](CN12)[C@@H]34 (stereo not given in full) | 536 | 610 | 552
COC1=CC=C2[C@H]3CC[C@]4(C)[C@H](CC[C@H]4[C@@H]3CCC2=C1)NCCCCCCN5C(=O)\C=C/C5=O | 496 | 460 | 517
COC(=O)N(C)c1c(N)nc(-c2nn(Cc3ccccc3F)c3ncccc23)nc1N | 488 | 586 | 488
O=c1oc2cc(O)ccc2s1 | 502 | 482 | 503
Cc1ccc(-c2ncn(-c3ccc(Nc4nccc(-c5cccc(N6CCOCC6)c5)n4)cc3)n2)cn1 | 370 | 543 | 549
O=C(O)CSCC(=O)NC1CCSC1=O (stereo not given) | 379 | 415 | 405
COc1ccc(CNC(=O)c2cc(-c3cncc(Cl)c3)cnc2-c2ccccn2)nc1OC | 430 | 412 | 407
O=C(Nc1ccc(-c2ccnc(Nc3ccc(N4CCOCC4)cc3)n2)cc1)C1CCCN1 (stereo not given) | 501 | 601 | 553
CC1(C)O[C@@H]2C[C@H]3[C@@H]4C[C@H](F)\C5=C\C(=O)\C=C/[C@]5(C)[C@H]4[C@@H](O)C[C@]3(C)[C@@]2(O1)C(=O)CO | 515 | 622 | 588
COc1ccc([C@@H]2CNC(=O)C2)cc1OC1CCCC1 | 432 | 457 | 516
O=C(/C=C/c1ccc(/C=C/C(=O)Nc2ccc(C3=NCCN3)cc2)cc1)Nc1ccc(C2=NCCN2)cc1 | 635 | 610 | 613
CSCC[C@H](NC(=O)[C@H](Cc1c[nH]c2ccccc12)NC(=O)CCNC(=O)OC(C)(C)C)C(=O)N[C@@H](CC(=O)O)C(=O)N[C@@H](Cc1ccccc1)C(N)=O | 495 | 579 | 545
CN(C)C1=CC(=CC=C1)C\2=C\3C(=O)N(NC3=C/C(=O)N2C)C4=CC=CC=C4Cl | 513 | 512 | 533
Nc1nc(OCc2cc(Br)cs2)c2[nH]cnc2n1 | 516 | 616 | 552
